Data: article PMC12638379, “An innovative approach to development of new pyrazolylquinolin-2-one hybrids as dual EGFR and BRAF^V600E inhibitors” (Molecular Diversity, 2025)
Where two headings read alike, the source gives them in different places.

Test system: NCI 60 cancer cell lines
Experiment: NCI anticancer screening over a panel of 60 cancer cells, single concentration 10 µM
Type: cell-based, human
Conditions: Homo sapiens, read-out: % Growth Inhibition (GI %)
Outline: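 Run under the NCI Compound Evaluation Branch protocol, each compound was tested once at 10 µM. The panel comprised 60 cancer cell lines of diverse tissue origin, including leukemia, lung, colon, CNS, renal, ovarian, breast and prostate.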

Compound: C/C(=N\Nc1ccc(S(N)(=O)=O)cc1)c1cnn(-c2cc(=O)[nH]c3ccc(C)cc23)c1C [Compound 4b, (E)-4-(2-(1-(5-methyl-1-(6-methyl-2-oxo-1,2-dihydroquinolin-4-yl)-1H-pyrazol-4-yl)ethylidene)hydrazineyl)benzenesulfonamide]
- inhibition at 10 µM (A498, Renal cancer A498, 10 μM): 5.79%
- inhibition at 10 µM (A549, Non-small cell lung cancer A549/ATCC, 10 μM): < 5%
- inhibition at 10 µM (ACHN, Renal cancer ACHN, 10 μM): < 5%
- inhibition at 10 µM (BT-549, Breast cancer BT-549, 10 μM): < 5%
- inhibition at 10 µM (CAKI-1, Renal cancer CAKI-1, 10 μM): 5.35%
- inhibition at 10 µM (CCRF-CEM, Leukemia CCRF-CEM, 10 μM): 16%
- inhibition at 10 µM (COLO 205, Colon cancer COLO 205, 10 μM): < 5%
- inhibition at 10 µM (DU-145, Prostate cancer DU-145, 10 μM): < 5%
- inhibition at 10 µM (EKVX, Non-small cell lung cancer EKVX, 10 μM): < 5%
- inhibition at 10 µM (HCC 2998, Colon cancer HCC-2998, 10 μM): < 5%
- inhibition at 10 µM (HCT-15, Colon cancer HCT-15, 10 μM): < 5%
- inhibition at 10 µM (HCT-116, Colon cancer HCT-116, 10 μM): < 5%
- inhibition at 10 µM (HOP-62, Non-small cell lung cancer HOP-62, 10 μM): 9.34%
- inhibition at 10 µM (HOP-92, Non-small cell lung cancer HOP-92, 10 μM): < 5%
- inhibition at 10 µM (HT-29, Colon cancer HT29, 10 μM): < 5%
- inhibition at 10 µM (Hs-578T, Breast cancer HS 578T, 10 μM): 14.4%
- inhibition at 10 µM (IGROV-1, Ovarian cancer IGROV1, 10 μM): < 5%
- inhibition at 10 µM (K562, Leukemia K-562, 10 μM): 9.72%
- inhibition at 10 µM (LOX IMVI, Melanoma LOX IMVI, 10 μM): 13%
- inhibition at 10 µM (Leukemia SR, 10 μM): 40.3%
- inhibition at 10 µM (MCF7, Breast cancer MCF7, 10 μM): 16.1%
- inhibition at 10 µM (MDA-MB-231, Breast cancer MDA-MB-231/ATCC, 10 μM): 18.8%
- inhibition at 10 µM (MDA-MB-435, Melanoma MDA-MB-435, 10 μM): 8.01%
- inhibition at 10 µM (MDA-MB-468, Breast cancer MDA-MB-468, 10 μM): 41.7%
- inhibition at 10 µM (MOLT-4, Leukemia MOLT-4, 10 μM): 16.1%
- inhibition at 10 µM (Melanoma M14, 10 μM): < 5%
- inhibition at 10 µM (Melanoma MALM-3M, 10 μM): 16.4%
- inhibition at 10 µM (NCI-H23, Non-small cell lung cancer NCI-H23, 10 μM): < 5%
- inhibition at 10 µM (NCI-H226, Non-small cell lung cancer NCI-H226, 10 μM): 15.9%
- inhibition at 10 µM (NCI-H322M, Non-small cell lung cancer NCI-H322M, 10 μM): < 5%
- inhibition at 10 µM (NCI-H460, Non-small cell lung cancer NCI-H460, 10 μM): < 5%
- inhibition at 10 µM (NCI-H522, Non-small cell lung cancer NCI-H522, 10 μM): 27.9%
- inhibition at 10 µM (NCI/ADR-RES, Ovarian cancer NCI/ADR-RES, 10 μM): < 5%
- inhibition at 10 µM (OVCAR-4, Ovarian cancer OVCAR-4, 10 μM): 11.4%
- inhibition at 10 µM (OVCAR-5, Ovarian cancer OVCAR-5, 10 μM): < 5%
- inhibition at 10 µM (Prostate cancer PC-3, 10 μM): 9.56%
- inhibition at 10 µM (RPMI-8226, Leukemia RPMI-8226, 10 μM): < 5%
- inhibition at 10 µM (RXF 393, Renal cancer RXF 393, 10 μM): 9.76%
- inhibition at 10 µM (SF-268, CNS Cancer SF-268, 10 μM): 13.3%
- inhibition at 10 µM (SF-295, CNS Cancer SF-295, 10 μM): 11.1%
- inhibition at 10 µM (SF-539, CNS Cancer SF-539, 10 μM): 16.9%
- inhibition at 10 µM (SK-MEL-2, Melanoma SK-MEL-2, 10 μM): 7.35%
- inhibition at 10 µM (SK-MEL-5, Melanoma SK-MEL-5, 10 μM): 9.87%
- inhibition at 10 µM (SK-MEL-28, Melanoma SK-MEL-28, 10 μM): < 5%
- inhibition at 10 µM (SK-OV-3, Ovarian cancer SK-OV-3, 10 μM): < 5%
- inhibition at 10 µM (SN12C, Renal cancer SN12C, 10 μM): 5.72%
- inhibition at 10 µM (SNB-19, CNS Cancer SNB-19, 10 μM): 12.6%
- inhibition at 10 µM (SNB-75, CNS Cancer SNB-75, 10 μM): 12.2%
- inhibition at 10 µM (SW-620, Colon cancer SW-620, 10 μM): < 5%
- inhibition at 10 µM (T47D, Breast cancer T-47D, 10 μM): 27.3%
- inhibition at 10 µM (TK-10, Renal cancer TK-10, 10 μM): < 5%
- inhibition at 10 µM (U-251, CNS Cancer U251, 10 μM): 13%
- inhibition at 10 µM (UACC-62, Melanoma UACC-62, 10 μM): 19.2%
- inhibition at 10 µM (UACC-257, Melanoma UACC-257, 10 μM): < 5%
- inhibition at 10 µM (UO-31, Renal cancer UO-31, 10 μM): 11.7%
